Data as given in ChEMBL document CHEMBL1201862, “PubChem BioAssay data set” (2004).
The source made the active and inactive calls.

How the values were obtained:
Mucolipin-3 = Mucolipin-3 (Homo sapiens, UniProt Q8TDD5); experiment: Fluorescence counterscreen assay for […] agonists: dose response cell-based high-throughput screening assay to identify agonists of the transient receptor potential channel ML3 (TRPML3). [Related pubchem assays: 1424, 1448 ]; format: functional
[1] = cytotoxicity in HEK-293T cells, dose response, cytotoxicity control for TCR NF-kB inhibitor project, luminescence, T-cell screen hits (AID 489026); format: functional, cell-based;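 also: cells exposed to compound about 14 hours before the viability readout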
Ion channel NompC = Ion channel NompC (Danio rerio, UniProt Q7T1G6); experiment: Dose response cell-based high-throughput screening assay for agonists of the transient receptor potential channel N1 (TRPN1). [Related pubchem assays (depositor defined):AID1424, AID1448]; format: functional
Protein RecA = molecular target: T1, Protein RecA (Mycobacterium tuberculosis, UniProt P9WHJ3); experiment: Fluorescence Cell-Free Homogeneous Dose Retest to Identify Inhibitors of RecA-Intein Splicing Activity. [Related pubchem assays (depositor defined):AID2097, AID2223, AID489010, AID492950]; format: functional
T1 sequence (P9WHJ3 whole entry): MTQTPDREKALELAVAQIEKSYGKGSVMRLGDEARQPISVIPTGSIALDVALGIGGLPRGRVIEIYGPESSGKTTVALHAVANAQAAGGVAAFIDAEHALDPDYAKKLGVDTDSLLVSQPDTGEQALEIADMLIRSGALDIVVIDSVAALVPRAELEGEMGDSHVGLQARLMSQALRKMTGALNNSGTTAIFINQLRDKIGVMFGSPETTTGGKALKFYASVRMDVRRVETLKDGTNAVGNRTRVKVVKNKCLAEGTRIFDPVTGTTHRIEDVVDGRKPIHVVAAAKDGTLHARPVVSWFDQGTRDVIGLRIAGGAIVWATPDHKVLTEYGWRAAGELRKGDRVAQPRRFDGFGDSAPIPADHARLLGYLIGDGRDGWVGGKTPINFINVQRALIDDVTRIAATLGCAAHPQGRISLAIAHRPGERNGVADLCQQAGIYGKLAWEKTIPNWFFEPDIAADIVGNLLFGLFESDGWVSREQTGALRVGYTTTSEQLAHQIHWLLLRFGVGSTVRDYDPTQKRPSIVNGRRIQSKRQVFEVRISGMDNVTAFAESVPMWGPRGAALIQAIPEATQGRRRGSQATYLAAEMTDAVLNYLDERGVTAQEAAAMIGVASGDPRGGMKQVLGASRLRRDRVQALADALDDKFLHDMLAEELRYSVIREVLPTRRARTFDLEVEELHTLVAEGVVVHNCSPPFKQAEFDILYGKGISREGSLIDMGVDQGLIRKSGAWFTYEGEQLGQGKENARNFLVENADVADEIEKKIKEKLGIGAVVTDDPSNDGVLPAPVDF

[2] = system: Streptococcus sp. 'group A'; experiment: growth inhibition of control SK(-) GAS strain, dose response, counter-screen for streptokinase expression inhibitor project, luminescence, kanamycin, BacTiterGlo, confirmation (AID 1900); format: functional, organism-based
[3] = HEp-2 cell cytotoxicity, dose response, cytotoxicity control for RSV inhibitor project, HTS (AID 2410); format: functional; conditions: human respiratory syncytial virus
[4] = molecular target: G-protein coupled receptor 55 (Homo sapiens, UniProt Q9Y2T6); experiment: GPR55 antagonists blocking LPI-driven arrestin recruitment, primary screen, imaging, U2OS, beta-arrestin-GFP, LPI agonist (AID 2013); format: functional;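 also: antagonist potency measured as reduced agonist-driven arrestin aggregation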
[5] = molecular target: T2, Replicative DNA helicase DnaB (Mycobacterium tuberculosis, UniProt P9WMR3); experiment: DnaB intein splicing inhibitors, dose response, biochemical, cell-free fluorescence (AID 449749); format: functional
T2 sequence (P9WMR3 whole entry): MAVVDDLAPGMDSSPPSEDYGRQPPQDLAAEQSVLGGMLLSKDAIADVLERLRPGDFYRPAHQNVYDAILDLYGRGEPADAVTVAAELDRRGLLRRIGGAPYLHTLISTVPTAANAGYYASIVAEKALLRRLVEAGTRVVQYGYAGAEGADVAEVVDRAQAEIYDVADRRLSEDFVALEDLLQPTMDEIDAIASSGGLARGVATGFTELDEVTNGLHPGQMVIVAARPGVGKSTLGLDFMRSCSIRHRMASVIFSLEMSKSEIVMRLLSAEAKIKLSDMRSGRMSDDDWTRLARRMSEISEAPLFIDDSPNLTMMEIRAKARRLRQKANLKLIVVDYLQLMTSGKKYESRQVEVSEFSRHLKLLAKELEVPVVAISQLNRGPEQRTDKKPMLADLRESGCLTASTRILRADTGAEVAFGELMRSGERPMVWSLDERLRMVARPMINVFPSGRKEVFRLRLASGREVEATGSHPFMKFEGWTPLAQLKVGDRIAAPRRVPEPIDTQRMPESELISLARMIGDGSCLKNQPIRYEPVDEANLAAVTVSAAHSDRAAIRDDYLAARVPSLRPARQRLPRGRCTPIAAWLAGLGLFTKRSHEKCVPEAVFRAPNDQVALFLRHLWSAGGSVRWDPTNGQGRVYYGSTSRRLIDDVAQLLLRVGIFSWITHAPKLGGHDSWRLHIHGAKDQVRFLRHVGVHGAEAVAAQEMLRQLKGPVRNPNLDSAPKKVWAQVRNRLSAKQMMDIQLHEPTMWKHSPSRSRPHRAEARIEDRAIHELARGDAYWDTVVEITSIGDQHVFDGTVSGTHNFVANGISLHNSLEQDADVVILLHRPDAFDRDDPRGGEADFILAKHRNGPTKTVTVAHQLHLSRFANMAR

Streptococcus = experiment: Group A Streptococcus viability loss, dose response, counter-screen for streptokinase expression inhibitor project, luminescence, BacTiterGlo (AID 1915); format: functional, organism-based;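 also: potency for reduction of bacterial viability or growth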
Streptokinase A = molecular target: T3, Streptokinase A (Streptococcus pyogenes serotype M1, UniProt P10520); experiment: S. pyogenes streptokinase expression inhibitors, potency, dose response, plasminogen activation absorbance, OD405 (AID 1914); format: functional, Streptococcus pyogenes M1 GAS;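 also: secreted streptokinase activity via plasminogen activation per viability signal from cell pellet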
T3 sequence (P10520 whole entry): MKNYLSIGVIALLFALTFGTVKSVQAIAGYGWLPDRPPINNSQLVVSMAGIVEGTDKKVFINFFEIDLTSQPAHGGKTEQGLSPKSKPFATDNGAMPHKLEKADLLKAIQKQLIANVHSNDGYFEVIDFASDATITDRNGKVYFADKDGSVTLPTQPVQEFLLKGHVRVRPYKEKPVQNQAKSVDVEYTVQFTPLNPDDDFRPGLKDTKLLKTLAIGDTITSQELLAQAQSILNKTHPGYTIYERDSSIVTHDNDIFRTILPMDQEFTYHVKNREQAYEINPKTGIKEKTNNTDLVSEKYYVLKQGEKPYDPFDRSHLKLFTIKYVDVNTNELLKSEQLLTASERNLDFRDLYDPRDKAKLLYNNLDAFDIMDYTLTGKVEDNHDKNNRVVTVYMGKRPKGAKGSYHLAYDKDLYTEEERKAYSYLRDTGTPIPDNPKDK

Genome polyprotein = Genome polyprotein (dengue virus type 2, UniProt P29990); experiment: Dengue-2 NS5 methyltransferase inhibitors, primary screen, biochemical, confirmation dose response (AID 588689); format: functional
Coagulation factor XII = molecular target: T4, Coagulation factor XII (Homo sapiens, UniProt P00748); experiment: Factor XIIa Dose Response Confirmation from Single Well HTS. [Related pubchem assays (depositor defined):AID701]; format: functional
T4 sequence (P00748 whole entry): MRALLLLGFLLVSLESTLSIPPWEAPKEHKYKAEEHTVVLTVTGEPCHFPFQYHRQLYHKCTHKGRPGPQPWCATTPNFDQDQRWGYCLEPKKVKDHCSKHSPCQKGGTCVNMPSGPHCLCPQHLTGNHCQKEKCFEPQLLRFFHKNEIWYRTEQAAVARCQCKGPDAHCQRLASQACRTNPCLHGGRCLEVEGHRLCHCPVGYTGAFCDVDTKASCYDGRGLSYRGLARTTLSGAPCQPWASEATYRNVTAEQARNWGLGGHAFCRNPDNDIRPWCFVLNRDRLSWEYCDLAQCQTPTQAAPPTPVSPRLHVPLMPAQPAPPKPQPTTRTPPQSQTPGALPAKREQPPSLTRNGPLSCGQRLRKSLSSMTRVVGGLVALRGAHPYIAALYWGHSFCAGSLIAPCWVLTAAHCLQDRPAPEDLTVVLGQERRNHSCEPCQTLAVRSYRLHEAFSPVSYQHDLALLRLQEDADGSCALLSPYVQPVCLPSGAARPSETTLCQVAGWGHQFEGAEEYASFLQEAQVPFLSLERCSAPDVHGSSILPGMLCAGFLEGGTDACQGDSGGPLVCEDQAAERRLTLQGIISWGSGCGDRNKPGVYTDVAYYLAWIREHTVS

[6] = molecular target: Kappa-type opioid receptor (Homo sapiens, UniProt P41145); experiment: SAR analysis of small molecule agonists of the kappa opioid receptor via a luminescent beta-arrestin assay - Set 3. [Related pubchem assays (depositor defined):AID1777, AID1785, AID1786, AID1966, AID2133, AID2136, AID2284, AID2500]; format: functional
[7] = molecular target: Delta-type opioid receptor (Homo sapiens, UniProt P41143); experiment: SAR Analysis of Agonists of the DOR Receptor using an Image-Based Assay - Set 3. [Related pubchem assays (depositor defined):AID1777, AID1786]; format: functional
Mu-type opioid receptor = Mu-type opioid receptor (Homo sapiens, UniProt P35372); experiment: SAR Analysis of Agonists of the MOR Receptor using an Image-Based Assay - Set 3. [Related pubchem assays (depositor defined):AID1777, AID1785, AID1786, AID1966, AID2133, AID2136, AID2284, AID2285, AID2352]; format: functional
[8] = molecular target: Alkaline phosphatase, placental type (Homo sapiens, UniProt P05187); experiment: PLAP enzyme inhibitors, confirmation, biochemical, luminescence (AID 1512); format: functional
[9] = molecular target: T5, Alkaline phosphatase, tissue-nonspecific isozyme (Homo sapiens, UniProt P05186); experiment: human TNAP enzyme inhibitors, SAR follow-up, biochemical, luminescent, dose response (AID 1056)
T5 sequence (P05186 whole entry): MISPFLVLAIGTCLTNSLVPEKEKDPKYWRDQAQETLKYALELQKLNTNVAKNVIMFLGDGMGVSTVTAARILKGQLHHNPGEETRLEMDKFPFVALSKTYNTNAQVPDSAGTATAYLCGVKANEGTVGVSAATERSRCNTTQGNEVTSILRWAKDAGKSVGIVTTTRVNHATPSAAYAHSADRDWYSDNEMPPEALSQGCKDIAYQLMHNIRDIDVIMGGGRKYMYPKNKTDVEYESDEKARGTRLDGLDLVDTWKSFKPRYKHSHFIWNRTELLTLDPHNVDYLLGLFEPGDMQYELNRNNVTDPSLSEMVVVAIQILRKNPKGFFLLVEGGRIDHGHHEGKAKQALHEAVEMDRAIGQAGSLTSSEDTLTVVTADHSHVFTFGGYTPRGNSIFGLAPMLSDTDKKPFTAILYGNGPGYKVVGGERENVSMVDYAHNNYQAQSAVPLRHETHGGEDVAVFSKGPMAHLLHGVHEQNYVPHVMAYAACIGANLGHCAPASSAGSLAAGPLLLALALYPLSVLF

[10] = molecular target: DNA damage-inducible transcript 3 protein (Mus musculus, UniProt P35639); format: functional, Cricetulus griseus
[11] = cytotoxicity toward DRD oncogenic fibroblasts, dose response, cell-based, non-viral oncogenic, luminescence (AID 1934); format: functional; conditions: Homo sapiens
BJ [12] = experiment: cytotoxicity toward BJ-TERT fibroblasts, dose response, cell-based, RAS-independent, luminescence (AID 1933); format: functional; conditions: Homo sapiens
BJ [13] = experiment: cells; format: functional, cell-based; conditions: Homo sapiens
BJ [14] = experiment: cytotoxicity toward BJ-TERT-LT-ST fibroblasts, dose response, cell-based, RAS-independent, luminescence (AID 1935); format: functional; conditions: Homo sapiens;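 also: BJ fibroblasts immortalized with TERT plus LT and ST oncogenes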
[15] = molecular target: FAD-linked sulfhydryl oxidase ALR (Homo sapiens, UniProt P55789); experiment: inhibitors of human ALR sulfhydryl oxidase, dose response, biochemical, H2O2 detection, luminescence, cherry-pick (AID 493248)
FAD-linked sulfhydryl oxidase ALR, sequence (P55789 whole entry): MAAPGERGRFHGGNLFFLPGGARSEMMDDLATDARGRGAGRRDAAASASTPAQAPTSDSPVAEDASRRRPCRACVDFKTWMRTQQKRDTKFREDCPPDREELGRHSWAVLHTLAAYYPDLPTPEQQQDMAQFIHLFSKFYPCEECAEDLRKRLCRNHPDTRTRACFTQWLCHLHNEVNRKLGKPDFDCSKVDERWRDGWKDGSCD

Mu-type opioid receptor, sequence (P35372 whole entry): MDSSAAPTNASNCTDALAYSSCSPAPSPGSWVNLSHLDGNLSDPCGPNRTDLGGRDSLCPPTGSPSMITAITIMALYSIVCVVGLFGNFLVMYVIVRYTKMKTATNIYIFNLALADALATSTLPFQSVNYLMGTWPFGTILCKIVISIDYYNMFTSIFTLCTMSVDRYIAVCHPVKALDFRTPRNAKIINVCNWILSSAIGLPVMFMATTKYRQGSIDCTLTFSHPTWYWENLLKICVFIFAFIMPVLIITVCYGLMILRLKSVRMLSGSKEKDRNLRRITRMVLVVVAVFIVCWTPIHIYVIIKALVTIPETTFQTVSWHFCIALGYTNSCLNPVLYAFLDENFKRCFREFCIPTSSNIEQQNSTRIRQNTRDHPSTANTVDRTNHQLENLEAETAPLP
G-protein coupled receptor 55, sequence (Q9Y2T6 whole entry): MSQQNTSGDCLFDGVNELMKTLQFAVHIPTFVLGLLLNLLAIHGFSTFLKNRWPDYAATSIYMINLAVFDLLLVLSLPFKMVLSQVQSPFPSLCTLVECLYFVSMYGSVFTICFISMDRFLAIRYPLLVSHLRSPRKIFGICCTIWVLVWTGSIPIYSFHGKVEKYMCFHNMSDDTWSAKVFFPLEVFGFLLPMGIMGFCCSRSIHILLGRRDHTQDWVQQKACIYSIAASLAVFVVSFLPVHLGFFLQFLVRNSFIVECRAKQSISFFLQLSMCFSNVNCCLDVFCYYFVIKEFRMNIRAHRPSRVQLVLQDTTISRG
Genome polyprotein, sequence (P29990 2492-3391 limits assumed): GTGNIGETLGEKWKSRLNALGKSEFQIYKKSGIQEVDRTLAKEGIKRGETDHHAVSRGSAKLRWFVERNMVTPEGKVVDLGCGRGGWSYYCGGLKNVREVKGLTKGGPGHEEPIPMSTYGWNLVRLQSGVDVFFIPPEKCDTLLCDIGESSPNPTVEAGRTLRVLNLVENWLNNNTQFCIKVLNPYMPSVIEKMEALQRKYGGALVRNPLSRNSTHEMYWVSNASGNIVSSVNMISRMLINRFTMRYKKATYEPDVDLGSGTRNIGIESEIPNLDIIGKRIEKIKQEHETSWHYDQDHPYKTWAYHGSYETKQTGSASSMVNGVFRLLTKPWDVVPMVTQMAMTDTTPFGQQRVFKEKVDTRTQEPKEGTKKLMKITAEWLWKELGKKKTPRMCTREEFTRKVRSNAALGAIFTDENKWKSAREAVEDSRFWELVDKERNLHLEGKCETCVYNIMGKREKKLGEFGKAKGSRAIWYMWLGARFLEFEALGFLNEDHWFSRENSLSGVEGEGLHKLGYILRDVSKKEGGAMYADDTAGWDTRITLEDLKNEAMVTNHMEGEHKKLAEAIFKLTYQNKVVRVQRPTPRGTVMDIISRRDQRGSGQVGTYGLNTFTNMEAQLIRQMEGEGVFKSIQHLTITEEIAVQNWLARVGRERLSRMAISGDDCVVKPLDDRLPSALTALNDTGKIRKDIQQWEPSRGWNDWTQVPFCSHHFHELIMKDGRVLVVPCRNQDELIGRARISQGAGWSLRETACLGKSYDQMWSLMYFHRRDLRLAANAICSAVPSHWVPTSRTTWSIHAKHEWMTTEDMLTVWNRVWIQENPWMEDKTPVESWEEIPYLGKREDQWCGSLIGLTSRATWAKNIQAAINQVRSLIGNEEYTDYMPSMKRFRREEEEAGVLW
Alkaline phosphatase, placental type, sequence (P05187 whole entry): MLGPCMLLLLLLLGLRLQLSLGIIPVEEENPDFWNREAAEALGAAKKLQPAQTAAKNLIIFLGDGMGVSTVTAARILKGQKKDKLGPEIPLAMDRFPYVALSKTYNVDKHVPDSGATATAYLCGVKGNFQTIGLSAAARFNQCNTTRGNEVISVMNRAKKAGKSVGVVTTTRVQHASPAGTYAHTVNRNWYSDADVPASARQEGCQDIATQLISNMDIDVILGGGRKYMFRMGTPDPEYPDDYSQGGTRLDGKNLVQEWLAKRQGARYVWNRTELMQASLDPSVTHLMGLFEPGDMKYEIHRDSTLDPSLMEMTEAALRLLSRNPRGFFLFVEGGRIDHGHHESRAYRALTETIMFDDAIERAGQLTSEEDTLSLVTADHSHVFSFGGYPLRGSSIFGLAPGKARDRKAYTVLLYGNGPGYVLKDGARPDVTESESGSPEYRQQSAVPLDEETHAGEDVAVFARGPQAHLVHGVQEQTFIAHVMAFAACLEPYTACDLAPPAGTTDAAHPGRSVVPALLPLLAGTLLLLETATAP
Kappa-type opioid receptor, sequence (P41145 whole entry): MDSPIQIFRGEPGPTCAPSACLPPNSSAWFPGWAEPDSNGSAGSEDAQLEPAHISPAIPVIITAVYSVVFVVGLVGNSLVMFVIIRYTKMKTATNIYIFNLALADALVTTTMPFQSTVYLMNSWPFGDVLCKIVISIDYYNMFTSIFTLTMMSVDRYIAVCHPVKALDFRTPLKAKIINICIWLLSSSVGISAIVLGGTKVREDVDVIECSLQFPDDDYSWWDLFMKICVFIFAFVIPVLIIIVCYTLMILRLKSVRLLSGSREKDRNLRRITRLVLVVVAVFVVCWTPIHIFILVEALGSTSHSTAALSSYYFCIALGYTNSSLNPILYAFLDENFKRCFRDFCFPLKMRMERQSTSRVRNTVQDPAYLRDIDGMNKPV
Delta-type opioid receptor, sequence (P41143 whole entry): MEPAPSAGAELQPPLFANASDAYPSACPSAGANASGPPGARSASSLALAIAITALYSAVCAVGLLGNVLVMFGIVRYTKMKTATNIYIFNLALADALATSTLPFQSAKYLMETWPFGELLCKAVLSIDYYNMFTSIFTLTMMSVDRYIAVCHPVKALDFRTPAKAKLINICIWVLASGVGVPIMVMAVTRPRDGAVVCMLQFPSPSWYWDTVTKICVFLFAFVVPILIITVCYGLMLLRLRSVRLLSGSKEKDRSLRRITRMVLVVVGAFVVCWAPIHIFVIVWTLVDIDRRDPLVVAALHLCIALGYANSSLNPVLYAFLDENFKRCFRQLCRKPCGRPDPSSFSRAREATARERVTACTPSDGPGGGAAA
Ion channel NompC, sequence (Q7T1G6 whole entry): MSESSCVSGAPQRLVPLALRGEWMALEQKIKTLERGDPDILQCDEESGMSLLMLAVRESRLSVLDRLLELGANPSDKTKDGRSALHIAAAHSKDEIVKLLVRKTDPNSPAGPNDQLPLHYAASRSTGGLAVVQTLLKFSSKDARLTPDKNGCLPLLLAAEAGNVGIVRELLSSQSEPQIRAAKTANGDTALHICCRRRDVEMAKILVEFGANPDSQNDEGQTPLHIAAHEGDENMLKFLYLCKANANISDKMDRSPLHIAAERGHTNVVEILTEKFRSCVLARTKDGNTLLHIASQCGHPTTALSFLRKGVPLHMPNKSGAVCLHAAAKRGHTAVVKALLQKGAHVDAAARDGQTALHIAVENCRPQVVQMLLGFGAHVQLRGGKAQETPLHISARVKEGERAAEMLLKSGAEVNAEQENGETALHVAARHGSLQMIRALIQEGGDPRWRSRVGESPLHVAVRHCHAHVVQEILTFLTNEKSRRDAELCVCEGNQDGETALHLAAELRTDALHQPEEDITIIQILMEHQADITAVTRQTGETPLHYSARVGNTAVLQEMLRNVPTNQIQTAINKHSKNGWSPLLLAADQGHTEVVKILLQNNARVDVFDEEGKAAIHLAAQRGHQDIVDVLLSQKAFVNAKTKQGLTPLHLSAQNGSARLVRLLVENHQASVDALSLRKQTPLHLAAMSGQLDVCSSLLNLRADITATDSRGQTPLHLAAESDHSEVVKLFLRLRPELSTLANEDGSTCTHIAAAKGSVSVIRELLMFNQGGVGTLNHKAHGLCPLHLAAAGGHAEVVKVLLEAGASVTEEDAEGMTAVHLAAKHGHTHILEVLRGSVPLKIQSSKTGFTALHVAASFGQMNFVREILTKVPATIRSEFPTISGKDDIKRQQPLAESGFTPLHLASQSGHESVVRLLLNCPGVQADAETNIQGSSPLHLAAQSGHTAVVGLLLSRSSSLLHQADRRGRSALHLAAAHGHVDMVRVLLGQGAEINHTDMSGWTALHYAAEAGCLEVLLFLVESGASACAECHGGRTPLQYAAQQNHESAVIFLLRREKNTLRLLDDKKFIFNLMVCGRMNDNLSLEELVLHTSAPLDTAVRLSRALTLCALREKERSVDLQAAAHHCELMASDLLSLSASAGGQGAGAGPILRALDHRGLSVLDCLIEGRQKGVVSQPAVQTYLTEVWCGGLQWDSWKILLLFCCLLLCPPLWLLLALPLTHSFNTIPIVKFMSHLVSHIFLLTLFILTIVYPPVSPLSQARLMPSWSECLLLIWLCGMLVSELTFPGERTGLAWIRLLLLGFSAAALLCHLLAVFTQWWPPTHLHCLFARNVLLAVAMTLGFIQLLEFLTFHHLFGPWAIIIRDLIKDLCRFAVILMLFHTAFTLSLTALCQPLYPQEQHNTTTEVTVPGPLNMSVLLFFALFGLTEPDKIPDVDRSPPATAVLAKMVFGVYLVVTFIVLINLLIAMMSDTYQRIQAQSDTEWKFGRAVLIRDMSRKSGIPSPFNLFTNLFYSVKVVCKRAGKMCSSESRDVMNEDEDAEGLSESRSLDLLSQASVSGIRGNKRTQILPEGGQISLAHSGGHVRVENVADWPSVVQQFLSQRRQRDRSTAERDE
DNA damage-inducible transcript 3 protein, sequence (P35639 whole entry): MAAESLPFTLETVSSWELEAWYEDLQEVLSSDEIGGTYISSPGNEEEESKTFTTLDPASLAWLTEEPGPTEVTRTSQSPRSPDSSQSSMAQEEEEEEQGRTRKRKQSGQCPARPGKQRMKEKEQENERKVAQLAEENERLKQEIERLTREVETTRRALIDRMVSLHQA

Which EC50 (Mucolipin-3) does the source give for `O=C(Nc1ccc(S(=O)(=O)Nc2ccccc2)cc1)c1ccc(CN2CCOCC2)cc1` here?
Its EC50 is > 29.9 µM (not active).

What about the IC50 [1] of the same compound?
The IC50 was 48.1 µM (inactive).

What about the EC50 (Ion channel NompC) of the same compound?
The EC50 was > 29.9 µM (inactive).

Which results are given for `c1ccc(-c2nc(N3CCCCCC3)nc(-n3ccnc3)n2)cc1`?
EC50 (Protein RecA): > 380 µM (inactive); EC50 [2]: 4.08 µM (active); CC50 [3]: 20.1 µM (active); IC50 [4]: 3.77 µM (active); AC50 [5]: 63.8 µM (active); EC50 (Streptococcus): 7.9 µM (active); EC50 (Streptokinase A): > 150 µM (not active)

What does the source list for `O=C1C(Cl)=C(N2CCOCC2)C(=O)N1c1ccccc1`?
IC50 (Genome polyprotein): 18.7 µM (active); IC50 (Coagulation factor XII): > 50 µM (inactive)

Which EC50 [6] does the source give for `Cc1ccccc1CSc1nnc(-c2ccccn2)n1Cc1cccs1` here?
Its EC50 is 14.7 µM (inactive).

And the EC50 [7]?
The EC50 was > 32 µM (inactive).

And the EC50 (Mu-type opioid receptor)?
The EC50 was > 32 µM (inactive).

What does the source list for `O=c1c2[nH]c3ccc(F)cc3c2ncn1CCc1ccc(O)c(O)c1`?
IC50 [8]: 1.04 µM (active); IC50 [9]: 0.253 µM (active)

For `COc1ccc(N/N=C(\C=N\O)C(=O)c2ccc(OC)cc2)cc1`, which “Absolute IC50 (CHOP)” value [10] is on record?
The value was 10 µM.

And the EC50 [11]?
Its EC50 is 1.15 µM (active).

What about the EC50 (BJ [12]) of the same compound?
Its EC50 is 1.56 µM (inconclusive).

And the EC50 (BJ [13])?
Its EC50 is 49 µM (active).

And the EC50 (BJ [14])?
The EC50 was 2.41 µM (inconclusive).

And the AC50 [15]?
The AC50 was 0.009 µM (active).
